US12583884B2, “3beta-(benzyloxy)-17alpha-methyl-pregn-5-en-20-one for use in the treatment of cognitive disorders” (AELIS FARMA, priority 2018, dated 2026)
Each block holds one molecule with its values, some of them ahead of it.

Assays:
Ts65Dn mice = assay: Declarative/relational memory (radial maze flexibility test), Down syndrome model; format: in vivo, mouse; details: 0.6 μg/ml in drinking water
Protocol: The relational memory task was performed using 8-arm radial mazes. The diameter of the central platform was 30 cm and the arms were 55 cm length; 10 cm width and 100 cm height from the floor. Each arm was equipped with a retractable door at its entrance and with a food-pellet delivering system at its end. Each maze was placed in a room containing visual cues on the walls to enable spatial discrimination. There was no intra-maze cue. Each maze was fully automated by videotracking (IMETRONIC Pessac—France). This allowed to automatically control the doors of the arms (opening/closure) and food delivery according to the location of the mouse.
Food-restricted mice (85% of their original body weight all throughout the study) were first submitted to 3 sessions of habituation to the mazes. During each habituation session, the mouse freely explored the maze until it visited each of the 8 arms, or 30 min elapsed. At the beginning of each habituation session, the mouse was placed in the central platform with all the arms closed. […]
The number of correct responses was measured at each session. […]
At the end of the behavioral study, mice were sacrificed, blood and brain samples were collected. 3Bn17MeP was quantified by LC/MS-MS chromatography in both plasma and brain.

[1] = Anxiety-like behaviors in the elevated plus maze; format: in vivo, mouse
Excerpt: The EPM apparatus was made of grey polyvinyl chloride and consisted of four elevated arms. The arms (height, 60 cm; length, 37 cm; width, 6 cm; each) were arranged in a cross-like disposition, with two opposite arms being enclosed by walls and the two other arms being open. A video camera placed on the top of the maze and connected to a tracking system allowed the automatic scoring of the locomotion of the mice in the maze. The light intensity of the maze was set at 45 lux in the open arms. One mouse was placed in the center of the EPM and was then free to explore the entire maze for 5 minutes. The time spent and the number of entries into the open arms and closed arms were measured. A decrease in the percentages of visits and/or of the time spent in open arms reflects an increase in anxiety levels.
Rimonabant was dissolved in a vehicle containing DMSO, (2%), Tween80 (2%) in injectable NaCl 0.9%. Within the same study, the effect of intraperitoneal injection of rimonabant at 10 mg/kg or of vehicle alone (10 ml/kg) was studied in the EPM in 2-month-old male C57B1/6J mice (n=10 per group). The EPM test was performed 30 minutes after rimonabant injection.

in vivo = details: both, Sprague-Dawley, rat, 20 mg/kg
Protocol: Blood samples for plasma drug analysis were collected after the last treatment, at 5 and 24 hours post-dose. Quantification was done by LC/MS-MS chromatography.

[2] = molecular target: T1, Vasoactive intestinal peptide PAC1-PACAP (Homo sapiens, UniProt P41586); assay: CEREP binding profile: PAC1
T1 construct: CEREP (contract panel)
Excerpt: The CEREP High-throughput profile consists of a broad collection of 80 transmembrane and soluble receptors, ion channels and G-Protein coupled receptors.

T1 sequence (P41586 21-468): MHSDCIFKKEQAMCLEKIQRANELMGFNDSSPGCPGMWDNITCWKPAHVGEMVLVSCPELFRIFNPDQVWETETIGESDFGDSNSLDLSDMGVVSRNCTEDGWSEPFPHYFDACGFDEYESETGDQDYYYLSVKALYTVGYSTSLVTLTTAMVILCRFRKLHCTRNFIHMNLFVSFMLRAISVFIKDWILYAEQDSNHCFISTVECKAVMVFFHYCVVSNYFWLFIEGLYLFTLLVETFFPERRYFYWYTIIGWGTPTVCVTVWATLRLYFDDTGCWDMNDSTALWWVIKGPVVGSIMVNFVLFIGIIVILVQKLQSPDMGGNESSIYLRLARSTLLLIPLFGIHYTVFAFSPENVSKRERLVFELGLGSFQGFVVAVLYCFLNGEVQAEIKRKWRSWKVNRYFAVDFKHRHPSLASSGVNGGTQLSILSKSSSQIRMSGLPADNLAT

SMILES: CC(=O)[C@@]1(C)CC[C@H]2[C@@H]3CC=C4C[C@@H](OCc5ccccc5)CC[C@]4(C)[C@H]3CC[C@@]21C [3Bn17MeP, 3β-benzyloxy, 17α-methyl-pregn-5-en-20-one]
Choice accuracy in the flexibility test (declarative/relational memory) (Ts65Dn mice): enhanced choice accuracy of Ts65Dn mice that reached the level of WT
Percentage of time spent and of visits in the open arms ([1]; acute 30 mg/kg per os, 3 hours after administration): had no effect
Effect: increase in anxiety-like behaviors (acute administration) ([1]; male mice, highest dose tested 30 mg/kg): No
concentration at 5 h (in vivo): 4650 ng/mL
concentration at 24 h (in vivo): 974 ng/mL

inhibition at 10 µM [2]: -25%
SMILES: CC(=O)[C@H]1CC[C@H]2[C@@H]3CC=C4C[C@@H](O)CC[C@]4(C)[C@H]3CC[C@]12C [pregnenolone, reference compound]
